Results published in DBAASP.
In brackets after ≈: the same amount, converted by molar mass.

What was measured:
Assay in all cases: ≥ marks a high value that may be exact or a test limit, other limits are often not marked, values filed in µg/mL are converted to µM
[1] = test system: Candida albicans
[2] = test system: Escherichia coli
[3] = test system: Shigella dysenteriae ATCC 9752
[4] = test system: Serratia marcescens
[5] = test system: Klebsiella pneumoniae ATCC 10031
[6] = test system: Pseudomonas putida
[7] = test system: Proteus mirabilis ATCC 25933
[8] = test system: Staphylococcus epidermidis ATCC 12228
[9] = test system: Saccharomyces cerevisiae
[10] = test system: Pseudomonas aeruginosa ATCC 9027
[11] = test system: Salmonella enterica subsp. enterica serovar Typhimurium ATCC 14028
[12] = test system: Bacillus subtilis KCTC 1021
[13] = test system: Micrococcus luteus ATCC 4698
[14] = test system: Bacillus subtilis NBRC 3513
[15] = test system: Bacillus megaterium ATCC 19213
[16] = test system: Staphylococcus aureus NBRC 12732
[17] = test system: Staphylococcus epidermidis NBRC 12933
[18] = test system: Enterococcus faecalis ATCC 29212
[19] = test system: Escherichia coli 218
[20] = test system: Shigella dysenteriae
[21] = test system: Staphylococcus aureus 37
[22] = test system: Pseudomonas aeruginosa ATCC 27853
[23] = test system: Pseudomonas aeruginosa
[24] = test system: Candida albicans ATCC 2002
[25] = test system: Staphylococcus aureus ATCC 25923
[26] = test system: Candida parapsilosis ATCC 22019
[27] = test system: Candida albicans ATCC 90028
[28] = test system: Escherichia coli 37
[29] = test system: Enterobacter cloacae ATCC 13047
[30] = test system: Klebsiella pneumoniae ATCC 700603
[31] = test system: Staphylococcus aureus 10
[32] = test system: Aeromonas caviae IP67-16T
[33] = test system: Cryptococcus neoformans IP960-67
[34] = test system: Candida albicans IP886-65
[35] = test system: Trichophyton mentagrophytes IP877-71
[36] = test system: Acinetobacter baumannii
[37] = test system: Saccharomyces cerevisiae IP118079
[38] = test system: Staphylococcus aureus IP76-25
[39] = test system: Trichophyton simii IP1063-74
[40] = test system: Microsporum canis IP1194
[41] = test system: Escherichia coli IP76-24
[42] = test system: Aspergillus fumigatus IP1025-70
[43] = test system: Trichophyton rubrum IP2043-92
[44] = test system: Nocardia brasiliensis IP16-80
[45] = test system: Aspergillus niger IP218-53
[46] = test system: Cryptococcus neoformans IP962-67
[47] = test system: Enterococcus faecalis IP103214
[48] = test system: Trichophyton simii J43 IP903-65
[49] = test system: Candida albicans IP884-65

**Q.** Which MIC [1] does the source give for CC[C@H](C)[C@H](NC(=O)CN)C(=O)N[C@@H](CCSC)C(=O)N[C@@H](CO)C(=O)N[C@H](C(=O)N[C@H](C(=O)N[C@@H](CCCCN)C(=O)N[C@@H](CC(=O)O)C(=O)N[C@H](C(=O)N[C@@H](C)C(=O)N[C@@H](CCCCN)C(=O)N[C@@H](CC(N)=O)C(=O)N[C@@H](C)C(=O)N[C@@H](C)C(=O)N[C@@H](CCCCN)C(=O)N[C@@H](CCC(=O)O)C(=O)N[C@@H](C)C(=O)N[C@@H](C)C(=O)N[C@@H](CCCCN)C(=O)NCC(=O)N[C@@H](C)C(=O)N[C@@H](CC(C)C)C(=O)N[C@@H](CO)C(=O)N[C@H](C(=O)N[C@@H](CC(C)C)C(=O)N[C@@H](CO)C(=O)N[C@H]1CSSC[C@@H](C(=O)O)NC(=O)[C@H]([C@@H](C)O)NC(=O)[C@H](CCCCN)NC(=O)[C@H](C)NC(=O)[C@H](CC(C)C)NC(=O)[C@H](CCCCN)NC1=O)[C@@H](C)O)C(C)C)C(C)C)[C@@H](C)CC [GIMSIVKDVAKNAAKEAAKGALSTLSCKLAKTC] here?
**A.** 45.2 µM (≈ 150 µg/mL)

**Q.** And the MIC [2]?
**A.** 22.6 µM (≈ 75 µg/mL)

**Q.** And the MIC [3]?
**A.** 7.53 µM (≈ 25 µg/mL)

**Q.** And the MIC [4]?
**A.** ≥ 60.2 µM

**Q.** What about the MIC [5] of the same compound?
**A.** 7.53 µM (≈ 25 µg/mL)

**Q.** And the MIC [6]?
**A.** 15.1 µM (≈ 50 µg/mL)

**Q.** What about the MIC [7] of the same compound?
**A.** ≥ 60.2 µM

**Q.** What about the MIC [8] of the same compound?
**A.** 3.01 µM (≈ 9.99 µg/mL)

**Q.** What about the MIC [9] of the same compound?
**A.** ≥ 45.2 µM

**Q.** What about the MIC [10] of the same compound?
**A.** 15.1 µM (≈ 50 µg/mL)

**Q.** What about the MIC [11] of the same compound?
**A.** 45.2 µM (≈ 150 µg/mL)

**Q.** What about the MIC [12] of the same compound?
**A.** 3.01 µM (≈ 9.99 µg/mL)

**Q.** What about the MIC [13] of the same compound?
**A.** 0.753 µM (≈ 2.5 µg/mL)

**Q.** For CC[C@H](C)[C@H](NC(=O)[C@H](C)N)C(=O)N[C@@H](Cc1ccccc1)C(=O)N[C@H](C(=O)N[C@@H](Cc1ccccc1)C(=O)N[C@H](C(=O)N[C@@H](CCCN=C(N)N)C(=O)N[C@@H](Cc1c[nH]c2ccccc12)C(=O)N[C@@H](CC(C)C)C(=O)N[C@@H](CC(C)C)C(=O)N[C@@H](CCCCN)C(=O)O)[C@@H](C)CC)[C@@H](C)CC [AIFIFIRWLLK], which MIC [14] is on record?
**A.** ≥ 32 µM

**Q.** What about the MIC [15] of the same compound?
**A.** 16 µM (≈ 22.7 µg/mL)

**Q.** What about the MIC [16] of the same compound?
**A.** 16 µM (≈ 22.7 µg/mL)

**Q.** What about the MIC [17] of the same compound?
**A.** ≥ 32 µM

**Q.** Which MIC [18] does the source give for CC[C@H](C)[C@H](N)C(=O)N[C@@H](CC(N)=O)C(=O)N[C@@H](CC(C)C)C(=O)N[C@@H](CCCCN)C(=O)N[C@@H](C)C(=O)N[C@H](C(=O)N[C@@H](C)C(=O)N[C@@H](C)C(=O)N[C@@H](CC(C)C)C(=O)N[C@H](C(=O)N[C@@H](CCCCN)C(=O)N[C@@H](CCCCN)C(=O)N[C@@H](CC(C)C)C(=O)N[C@@H](CC(C)C)C(=O)O)C(C)C)[C@@H](C)CC [INLKAIAALVKKLL] here?
**A.** 53.1 µM (≈ 80 µg/mL)

**Q.** What about the MIC [19] of the same compound?
**A.** ≥ 53.1 µM

**Q.** What about the MIC [20] of the same compound?
**A.** 13.3 µM (≈ 20 µg/mL)

**Q.** And the MIC [21]?
**A.** 13.3 µM (≈ 20 µg/mL)

**Q.** And the MIC [22]?
**A.** 26.5 µM (≈ 40 µg/mL)

**Q.** What about the MIC [23] of the same compound?
**A.** 26.5 µM (≈ 40 µg/mL)

**Q.** And the MIC [24]?
**A.** ≥ 53.1 µM

**Q.** And the MIC [25]?
**A.** 13.3 µM (≈ 20 µg/mL)

**Q.** What about the MIC [26] of the same compound?
**A.** 26.5 µM (≈ 40 µg/mL)

**Q.** And the MIC [27]?
**A.** ≥ 53.1 µM

**Q.** What about the MIC [28] of the same compound?
**A.** 26.5 µM (≈ 40 µg/mL)

**Q.** And the MIC [29]?
**A.** ≥ 53.1 µM

**Q.** And the MIC [30]?
**A.** 26.5 µM (≈ 40 µg/mL)

**Q.** What about the MIC [31] of the same compound?
**A.** ≥ 53.1 µM

**Q.** Which MIC [32] does the source give for CSCC[C@H](NC(=O)[C@H](Cc1c[nH]c2ccccc12)NC(=O)[C@H](CC(C)C)NC(=O)[C@H](C)N)C(=O)N[C@H](C(=O)N[C@@H](CC(C)C)C(=O)N[C@@H](CC(C)C)C(=O)N[C@@H](CCCCN)C(=O)N[C@@H](CCCCN)C(=O)N[C@H](C(=O)N[C@@H](CC(C)C)C(=O)N[C@@H](CCCCN)C(=O)N[C@@H](C)C(=O)N[C@@H](C)C(=O)N[C@@H](C)C(=O)N[C@@H](CCCCN)C(=O)N[C@@H](C)C(=O)N[C@@H](CC(C)C)C(=O)N[C@@H](CC(N)=O)C(=O)N[C@@H](C)C(=O)N[C@H](C(=O)N[C@@H](CC(C)C)C(=O)N[C@H](C(=O)NCC(=O)N[C@@H](C)C(=O)N[C@@H](CC(N)=O)C(=O)N[C@@H](C)C(=O)O)C(C)C)C(C)C)C(C)C)[C@@H](C)O [ALWMTLLKKVLKAAAKALNAVLVGANA] here?
**A.** 0.5 µM (≈ 1.39 µg/mL)

**Q.** And the MIC [33]?
**A.** 2 µM (≈ 5.56 µg/mL)

**Q.** And the MIC [34]?
**A.** 20 µM (≈ 55.6 µg/mL)

**Q.** And the MIC [35]?
**A.** 20 µM (≈ 55.6 µg/mL)

**Q.** What about the MIC [36] of the same compound?
**A.** 4.5 µM (≈ 12.5 µg/mL)

**Q.** What about the MIC [37] of the same compound?
**A.** 20 µM (≈ 55.6 µg/mL)

**Q.** And the MIC [38]?
**A.** 10 µM (≈ 27.8 µg/mL)

**Q.** And the MIC [39]?
**A.** 30 µM (≈ 83.4 µg/mL)

**Q.** And the MIC [40]?
**A.** 15 µM (≈ 41.7 µg/mL)

**Q.** What about the MIC [41] of the same compound?
**A.** 4 µM (≈ 11.1 µg/mL)

**Q.** What about the MIC [42] of the same compound?
**A.** 20 µM (≈ 55.6 µg/mL)

**Q.** And the MIC [43]?
**A.** ≥ 40 µM

**Q.** And the MIC [44]?
**A.** 10 µM (≈ 27.8 µg/mL)

**Q.** And the MIC [45]?
**A.** 30 µM (≈ 83.4 µg/mL)

**Q.** What about the MIC [46] of the same compound?
**A.** 1 µM (≈ 2.78 µg/mL)

**Q.** And the MIC [47]?
**A.** 20 µM (≈ 55.6 µg/mL)

**Q.** And the MIC [48]?
**A.** 20 µM (≈ 55.6 µg/mL)

**Q.** And the MIC [49]?
**A.** 20 µM (≈ 55.6 µg/mL)
